Measurements published in US6916471B2, “Red blood cells loaded with S-nitrosothiol and uses therefor” (Duke University, priority 1995, dated 2005).

How the values were obtained:
Sprague-Dawley rats = experiment: Local cerebral blood flow by H2-sensitive microelectrodes; type: in vivo, rat; details: for local cerebral blood flow: 1 μmol/kg infused over 3 minutes
Method: Adult male Sprague-Dawley rats (290-350 g) were anesthetized with sodium pentobarbital (50 mg/kg IP), intubated and ventilated with a small animal respirator (Edco Scientific Inc., Chapel Hill, N.C.) at a rate and tidal volume to maintain normal values of PaCO2 (35-45 mm Hg; PaCO2=systemic arterial blood carbon dioxide tension). The femoral vein and artery were cannulated for infusion of drugs and for continuous monitoring of systemic blood pressure, respectively. Aliquots of arterial blood (200 μl) were drawn periodically to measure blood gas tensions and pH (Instrumentation Laboratory Co., model 1304 blood gas/pH analyzer). The blood was replaced intravenously with three volumes of normal saline. The inspired O2 concentration was varied using premixed gases balanced with nitrogen. The tissue PO2 was measured continuously with polarographic platinum microelectrodes (50 μm O.D. coated with hydrophobic gas permeable Nafion) implanted stereotaxically in both the right and left hippocampus (AP−3.4 mm, ML+2.2 mm), caudate putamen nucleus and substantia nigra (see coordinates below) (Young, W., Stroke, 11:552-564 (1980); Heiss, W. D. and Traupett, H., Stroke, 12:161-167 (1981); Dewhirst, M. W. et al., Cancer Res., 54:3333-3336 (1994); Kerger, H. et al., Am. J. Physiol., 268:H802-H810 (1995)). The PO2 electrodes were polarized to −0.65V against a distant Ag/AgCl reference located on the tail and the current flow was measured using a low-impedance nA-meter. Regional arterial PO2 was adjusted by changing the inspired O2 concentration and atmospheric pressure.
Polarographic hydrogen (H2)-sensitive microelectrodes were implanted stereotaxically in the substantia nigra (AP −5.3 mm, ML −2.4 mm to the bregma, depth 3.2 mm), caudate putamen nucleus (CPN) (AP +0.8 mm, ML −2.5 mm, depth 5.2 mm) and parietal cortex, for measurement of regional blood flow (Young, W., Stroke, 11:552-564 (1980); Heiss, W. D. and Traupett, H., Stroke, 12:161-167 (1981)). The microelectrodes were made from platinum wire and insulated with epoxy, with the exception of the tip (1 mm) which was coated with Nafion. For placement, the electrodes were mounted on a micromanipulator and the rat's head was immobilized in a Kopf stereotaxic frame. H2-sensitive electrodes were polarized to +400 mV against a distant reference electrode on the tail, and the polarographic current was measured using a low-impedance nA meter during and after the inhalation of hydrogen gas (2.5%) for 1 min. Both the hydrogen clearance curves and voltage for oxygen measurements were made using PC WINDAQ (software, DI-200 AC, Dataq Instruments, Inc., Akron, Ohio). Cerebral blood flow was calculated using the initial slope method (Young, W., Stroke, 11:552-564 (1980); Heiss, W. D. and Traupett, H., Stroke, 12:161-167 (1981)). Regional blood flow responses were monitored for 30 min. prior to and 30 min. following drug administration; hemoglobins were given at time 0.
The cerebrovascular effects of SNO-Hb were measured in adult male Sprague-Dawley rats using O2 and H2 (blood flow)-sensitive microelectrodes that were placed stereotaxically in several regions of the brain as for Example 11.
Comparative effects of SNO-Hb (●) and Hb (▪) (1 μmol/kg infused over 3 minutes) on local blood flow in substantia nigra (SN), caudate putamen nucleus, and parietal cortex are shown for three different conditions. […] Baseline blood flow was decreased by ˜10% under 100% O2+3 ATA as compared to 100% O2. n=7 for all data points. Values of tissue/microvascular PO2 ranged from 19-37 mm Hg in 21% O2; from 68-138 mm Hg in 100% O2; and from 365-538 mm Hg in 100%+3 ATA (Duke University Medical Center Hyperbaric Chambers).

[1] = system: rabbit thoracic aorta rings; experiment: Oxygen-dependent rabbit aortic ring bioassay of Hb, SNO-Hb, GSNO and SNO-RBCs
Rats = experiment: Hemodynamics (blood pressure) at different O2 concentrations; type: in vivo, rat; details: 1 μmol/kg infused over 1 minute; 10 min. post-infusion
Method: Rats were anesthetized by intraperitoneal injection of pentobarbital, and the femoral arteries and veins accessed by local cutdown. The artery was then cannulated and the blood pressure monitored continuously using a P23 XL pressure transducer (Viggo Spectramed, Oxnard, Calif.) attached to a Gould recorder. The femoral vein was used for infusion of drugs and red blood cells containing SNO-Hb (1 ml over 1 min.) and an IBM PC (WINDAQ 200, Dataq Instruments, Inc.; Akron, Ohio) was used for data acquisition.
Drugs were infused through the femoral vein at 1 μmol/kg infused over 1 minute after blood pressure had stabilized (approximately 30 min). Measurements shown (FIG. 11A) were taken at 10 min. post-infusion of drug. […] P<0.05 vs. SNO-Hb; *P<0.05, **P<0.01) vs. baseline blood pressure. n=5-6 for each drug.
The hypotensive effects of SNO-RBCs were potentiated by pre-administration of the NO synthase inhibitor N^G-monomethyl-L-arginine (L-NMMA; 50 mg/kg). n=8 for each data point. Curves different by ANOVA (P<0.01), *P<0.05 vs. L-NMMA. The amount of hemolysis in these experiments was trivial. Infusion of the hemolysate had no effect on blood pressure.

[2] = Endogenous SNO-Hb and Hb(FeII)NO in blood by photolysis-chemiluminescence; type: in vivo, rat; details: 45 minutes after infusion, 50 mg/kg
Source text: To determine if SNO-Hb is naturally occuring in the blood, and if so, its relationship to the O2 transport capacity and nitrosylated-heme content of red cells, we developed an analytical approach to assay the S-nitrosothiol and nitrosyl-heme content of erythrocytes (Table 2). […] Hb was then purified from red cells and assayed for RSNO and (FeII)NO content. Arterial blood contained significant levels of SNO-Hb, whereas levels were virtually undetectable in venous blood (Table 2). […] The arterial-venous distribution seen for SNO-Hb was reversed in the case of Hb(FeII)NO, which was detected in higher concentrations in partially deoxygenated (venous) erythrocytes (Table 2). […] However, levels of Hb(FeII)NO in vivo are typically too low to be detected (by EPR) and SNO-Hb is EPR-silent (i.e. it is not paramagnetic). Thus, photolysis-chemiluminesence represents an important technological advance, as it is the first methodology capable of making quantitative and functional assessments of NO binding to Hb under normal physiological conditions.
Blood was obtained from the left ventricle (arterial) and jugular vein (venous) of anesthetized Sprague-Dawley rats. […] In 24 rats, Hb samples were divided in two aliquots which were then treated or not treated with 10-fold excess HgCl2 over protein concentration as measured by the method of Bradford. […]

Sprague-Dawley rat = experiment: Mean arterial pressure after femoral vein injection of loaded red blood cells; type: in vivo; details: 50 mg/kg
Source text: Systemic administration of cell-free Hb results in hypertensive responses which have been attributed to NO scavenging by the heme (Vogel, W. M., et al., Am. J. Physiol. 251:H413-H420 (1986); Olsen, S. B., et al., Circulation 93:329-332 (1996)). To determine if SNO-Hb is free of this adverse affect, and to explore if in vitro mechanisms of NO release extend to the in vivo circumstance, we compared responses to Hb and SNO-Hb infused as a bolus into the femoral vein of anesthetized rats. […] Thus, the profiles of these compounds in vivo closely resemble those seen in vitro (FIG. 4A). […] These changes in mean blood pressure of ˜10% are on the order of those that differentiate normotension from hypertension in man, and in the therapeutic range of some antihypertensive regimens. […] The bioactivity of SNO-Hb in blood, where S—NO/heme stoichiometries approach 1:50,000, is a dramatic illustration of the resistence of this NO-related activity to Hb(Fe) inactivation. […]
Rats were anesthetized by intraperitoneal injection of pentobarbital and the femoral arteries and veins accessed by local cut down. The artery was then cannulated and the blood pressure monitored continuously using a Viggo Spectramed pressure transducer attached to a Gould recorder. […]

rat red blood cells = experiment: S-nitrosylation of intraerythrocytic Hb (loading of red blood cells); type: cell-based; details: oxygenated rat red blood cells
Method: Given that Hb is largely contained within red blood cells, potential mechanisms by which S-nitrosylation of intracellular protein might occur were explored. […] Rapid oxidation of Hb was not observed under these conditions. […] Thus, erythrocyte access of RSNOs is thiol group specific.
Incubation of rat erythrocytes with S-nitrosocysteine (equimolar to heme (5 mM); phosphate buffer pH 7.4, 25° C.) leads to rapid formation of intracellular SNO-Hb(FeII)O2. […] By 60 min, 3 of the 4 available SH groups of Hb are S-nitrosylated (note that rat Hb contains 4 reactive SH groups). […] Spectrum A is that of SNO-Hb isolated from erythrocytes following G-25 chromatography. Treatment of A with dithionite results in reduction of the S—NO moiety, liberating free NO which is autocaptured by deoxy Hb, forming Hb(FeII)NO (note that dithionite simultaneously deoxygenates Hb) (spectrum C). […] The spectrum of Hb(FeII)NO containing 4 NO's per tetramer is shown for comparison (inset, spectrum B).
At shown intervals, red blood cells were pelleted rapidly by centrifugation, washed three times, lysed in deionized water at 4° C., and the cytosolic fraction subjected to rapid desalting across G-25 columns. Intracellular SNO-Hb was measured by the method of Saville (Gaston, B., et al., (1992); Stamler, J. S., et al., Proc. Natl. Acad. Sci. USA, 89:444-448 (1992)), and confirmed spectroscopically (inset of FIG. 3A) as described above.

S-nitrosohemoglobin [SNO-Hb]
local cerebral blood flow (Sprague-Dawley rats; 21% O2): improved blood flow in all three regions of the brain tested
local cerebral blood flow (Sprague-Dawley rats; 100% O2): significantly attenuated
local cerebral blood flow (Sprague-Dawley rats; 100% O2+3 ATA): tended to decrease cerebral flow to similar extents
effect on tone of rings contracted with phenylephrine under hypoxia ([1]; 1 μM, 6-7 torr): caused relaxations
effect of glutathione on vasorelaxant response ([1]; 10 μM glutathione, greatest at <1% O2): potentiates the vasorelaxant response
concentration-effect responses in R-structure ([1]; 95% O2): virtually identical to those of native Hb
change in blood pressure (Rats): significantly less of an increase in blood pressure than Hb

CNC(=N)NCCC[C@H](N)C(=O)O [L-NMMA, N^G-monomethyl-L-arginine]
depletion of SNO-Hb [2]: 82%
depletion of total Hb-NO [2]: 50±18%
increase in blood pressure (Sprague-Dawley rat): about 20 mm Hg

N[C@@H](CCC(=O)N[C@@H](CSN=O)C(=O)NCC(=O)O)C(=O)O [S-nitrosoglutathione]
brain perfusion (Sprague-Dawley rats; 100% O2 and 100% O2+3 ATA): increased brain perfusion
O2 dependence of vasorelaxant effects ([1]; 95%, 21%, <1% O2): largely independent of PO2
formation of intraerythrocytic SNO-Hb (rat red blood cells): not
change in blood pressure (Rats): decreased blood pressure
